Laboratory results published in patent US9481677B2, “Biaryl ether sulfonamides and their use as therapeutic agents” (XENON PHARMACEUTICALS INC., priority 2011, dated 2016).

molecular target: Nav1.7 (Homo sapiens (Human), UniProt Q15858); experiment: Patch voltage clamp electrophysiology, block of inactivated-state Nav1.7 in HEK-293 cells; assay type: cell-based; settings: affinity for the inactivated state; HEK-293 cells with β1 subunit; held at -60 mV; read-out: NaV1.7 (IC50 class)
Procedure: Patch voltage clamp electrophysiology allows for the direct measurement and quantification of block of voltage-gated sodium channels (Nav's), and allows the determination of the time- and voltage-dependence of block which has been interpreted as differential binding to the resting, open, and inactivated states of the sodium channel (Hille, B., Journal of General Physiology (1977), 69: 497-515).
The following patch voltage clamp electrophysiology studies were performed on representative compounds of the invention using human embryonic kidney cells (HEK), permanently transfected with an expression vector containing the full-length cDNA coding for the desired human sodium channel α-subunit, grown in culture media containing 10% FBS, 1% PSG, and 0.5 mg/mL G418 at 37° C. with 5% CO2. […] Nav1.7 and Nav1.5 cDNAs (NM_002977 and AC137587; SCN5A, respectively) were stably expressed in HEK-293 cells. The β1 subunit was coexpressed only in the Nav1.7 cell line.
Sodium currents were measured using the patch clamp technique in the whole-cell configuration using either a PatchXpress automated voltage clamp or manually using an Axopatch 200B (Axon Instruments) or Model 2400 (A-M systems) amplifier. […] The pipette was filled with a solution comprised of: 5 mM NaCl, 10 mM CsCl, 120 mM CsF, 0.1 mM CaCl2, 2 mM MgCl2, 10 mM HEPES, 10 mM EGTA; and adjusted to pH 7.2 with CsOH. The external solution had the following composition: 140 mM NaCl, 5 mM KCl, 2 mM CaCl2, 1 mM MgCl2, 10 mM HEPES; and adjusted to pH 7.4 with NaOH. In some studies, the external sodium was reduced by equimolar replacement with choline. Osmolarity in the CsF internal and NaCl external solutions was adjusted to 300 mOsm/kg and 310 mOsm/kg with glucose, respectively. All recordings were performed at ambient temperature in a bath chamber with a volume of 150 μL. Control sodium currents were measured in 0.5% DMSO. Controls and representative compounds of the invention were applied to the recording chamber through a 4-pinch or 8-pinch valve bath perfusion system manufactured by ALA Scientific Instruments.
Currents were recorded at 40 kHz sampling frequency, filtered at […], and stored using a Digidata-1322A analogue/digital interface with the pClamp software (Axon Instruments). Series resistance compensation was applied (60-80%). […] All statistics in this study are given as mean±SD.
The membrane potential was maintained at a voltage where inactivation of the channel is complete (which was −60 mV for both Nav1.7 and Nav1.5). The voltage is then stepped back to a very negative (Vhold=−150 mV) voltage for 20 ms and then a test pulse is applied to quantify the compound block. […] The percent decrease in sodium current following wash-on of compound was taken as the percent block of sodium channels.
The Example numbers provided in Table 1 and Table 2 correspond to the Examples herein.

Chain of Nav1.7 (Q15858 other isoform, or with tags, fused parts or gaps): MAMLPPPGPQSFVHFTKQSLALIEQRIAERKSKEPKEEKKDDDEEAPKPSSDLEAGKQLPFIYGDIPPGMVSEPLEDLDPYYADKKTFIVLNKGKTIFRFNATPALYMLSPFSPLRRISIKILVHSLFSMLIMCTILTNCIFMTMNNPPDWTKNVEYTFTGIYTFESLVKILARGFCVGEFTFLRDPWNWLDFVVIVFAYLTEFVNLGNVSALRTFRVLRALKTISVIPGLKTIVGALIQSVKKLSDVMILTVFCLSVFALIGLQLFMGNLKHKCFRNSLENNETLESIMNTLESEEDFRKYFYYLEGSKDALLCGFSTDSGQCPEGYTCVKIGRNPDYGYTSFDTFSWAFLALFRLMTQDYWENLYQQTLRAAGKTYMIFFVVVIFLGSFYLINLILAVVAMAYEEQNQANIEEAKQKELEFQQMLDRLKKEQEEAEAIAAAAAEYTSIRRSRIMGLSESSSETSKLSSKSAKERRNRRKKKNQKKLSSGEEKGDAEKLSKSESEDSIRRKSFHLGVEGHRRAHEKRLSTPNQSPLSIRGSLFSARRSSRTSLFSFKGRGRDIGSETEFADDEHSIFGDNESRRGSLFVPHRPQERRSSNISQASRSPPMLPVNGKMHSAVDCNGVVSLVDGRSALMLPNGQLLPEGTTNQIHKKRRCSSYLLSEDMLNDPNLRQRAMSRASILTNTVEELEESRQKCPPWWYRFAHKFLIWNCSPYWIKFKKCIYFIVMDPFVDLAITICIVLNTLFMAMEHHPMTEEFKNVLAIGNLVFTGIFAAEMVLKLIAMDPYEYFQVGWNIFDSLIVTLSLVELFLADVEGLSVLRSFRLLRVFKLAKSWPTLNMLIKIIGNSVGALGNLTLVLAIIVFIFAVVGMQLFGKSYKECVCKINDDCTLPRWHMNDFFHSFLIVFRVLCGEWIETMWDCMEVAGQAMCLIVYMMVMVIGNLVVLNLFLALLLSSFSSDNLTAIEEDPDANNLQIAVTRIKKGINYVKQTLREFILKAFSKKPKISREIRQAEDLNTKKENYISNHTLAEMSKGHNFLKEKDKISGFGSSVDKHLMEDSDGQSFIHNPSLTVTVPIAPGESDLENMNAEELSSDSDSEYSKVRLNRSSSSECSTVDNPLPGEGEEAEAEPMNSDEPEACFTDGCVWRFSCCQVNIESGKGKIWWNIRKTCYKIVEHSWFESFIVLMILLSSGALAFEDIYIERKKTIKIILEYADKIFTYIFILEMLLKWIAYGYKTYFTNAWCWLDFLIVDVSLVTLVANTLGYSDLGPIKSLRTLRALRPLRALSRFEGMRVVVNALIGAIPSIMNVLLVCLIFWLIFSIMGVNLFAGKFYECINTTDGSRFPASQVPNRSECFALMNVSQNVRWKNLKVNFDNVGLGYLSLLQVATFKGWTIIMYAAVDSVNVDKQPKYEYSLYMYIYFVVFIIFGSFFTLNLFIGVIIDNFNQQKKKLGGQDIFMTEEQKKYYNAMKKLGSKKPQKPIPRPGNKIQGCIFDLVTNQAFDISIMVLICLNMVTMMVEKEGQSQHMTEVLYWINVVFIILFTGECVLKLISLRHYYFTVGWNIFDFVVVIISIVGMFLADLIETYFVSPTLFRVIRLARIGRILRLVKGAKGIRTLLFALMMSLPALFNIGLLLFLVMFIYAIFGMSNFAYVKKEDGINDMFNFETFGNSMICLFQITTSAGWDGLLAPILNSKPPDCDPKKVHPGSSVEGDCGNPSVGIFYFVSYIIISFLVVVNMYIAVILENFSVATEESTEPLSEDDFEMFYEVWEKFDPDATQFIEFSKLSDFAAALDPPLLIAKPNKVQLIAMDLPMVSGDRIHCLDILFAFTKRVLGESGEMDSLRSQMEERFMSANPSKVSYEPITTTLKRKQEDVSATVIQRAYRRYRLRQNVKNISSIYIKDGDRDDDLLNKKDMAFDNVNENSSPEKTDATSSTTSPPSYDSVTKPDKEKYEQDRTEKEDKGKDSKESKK
Chain of Nav1.7 (Q07699 19-218 partner): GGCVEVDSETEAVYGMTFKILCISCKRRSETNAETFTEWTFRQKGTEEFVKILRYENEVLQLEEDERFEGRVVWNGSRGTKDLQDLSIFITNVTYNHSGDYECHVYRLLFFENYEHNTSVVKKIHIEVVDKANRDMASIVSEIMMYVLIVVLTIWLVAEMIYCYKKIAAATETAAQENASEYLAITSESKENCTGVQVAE

| Structure (SMILES) | IC50 [µM] |
| --- | --- |
| O=S(=O)(Nc1ncns1)c1cc(F)c(Oc2ccc(Cl)cc2-c2cccc3nccn23)cc1F [Example 30, 4-(4-chloro-2-(imidazo[1,2-a]pyridin-5-yl)phenoxy)-2,5-difluoro-N-(1,2,4-thiadiazol-5-yl)benzenesulfonamide] | ≤ 0.1 |
| O=S(=O)(Nc1ncns1)c1cc(F)c(Oc2ccc(Cl)cc2-c2ccnc3nccn23)cc1F [Example 31, 4-(4-chloro-2-(imidazo[1,2-a]pyrimidin-5-yl)phenoxy)-2,5-difluoro-N-(1,2,4-thiadiazol-5-yl)benzenesulfonamide] | ≤ 0.1 |
| O=S(=O)(Nc1ncns1)c1cc(F)c(Oc2ccc(Cl)cc2-c2cnc3n2CCNC3)cc1F [Example 32, 4-(4-chloro-2-(5,6,7,8-tetrahydroimidazo[1,2-a]pyrazin-3-yl)phenoxy)-2,5-difluoro-N-(1,2,4-thiadiazol-5-yl)benzenesulfonamide] | 0.1 to 1 |
| O=c1[nH]cc(-c2cc(Cl)ccc2Oc2cc(F)c(S(=O)(=O)Nc3ncns3)cc2F)n2cncc12 [Example 35, 4-(4-chloro-2-(8-oxo-7,8-dihydroimidazo[1,5-a]pyrazin-5-yl)phenoxy)-2,5-difluoro-N-(1,2,4-thiadiazol-5-yl)benzenesulfonamide] | 0.1 to 1 |
| O=S(=O)(Nc1ncns1)c1cc(F)c(Oc2ccc(Cl)cc2-c2ncc3cnccn23)cc1F [Example 36, 4-(4-chloro-2-(imidazo[1,5-a]pyrazin-3-yl)phenoxy)-2,5-difluoro-N-(1,2,4-thiadiazol-5-yl)benzenesulfonamide] | 1 to 10 |
| Nc1nc2cc(-c3cc(Cl)ccc3Oc3cc(F)c(S(=O)(=O)Nc4ncns4)cc3F)ccc2[nH]1 [Example 38, 4-(2-(2-amino-1H-benzo[d]imidazol-5-yl)-4-chlorophenoxy)-2,5-difluoro-N-(1,2,4-thiadiazol-5-yl)benzenesulfonamide] | ≤ 0.1 |
| Cn1cnc2c(-c3cc(Cl)ccc3Oc3cc(F)c(S(=O)(=O)Nc4ncns4)cc3F)ncnc21 [Example 39, 4-(4-chloro-2-(9-methyl-9H-purin-6-yl)phenoxy)-2,5-difluoro-N-(1,2,4-thiadiazol-5-yl)benzenesulfonamide] | 1 to 10 |
| O=S(=O)(Nc1ncns1)c1cc(F)c(Oc2ccc(Cl)cc2-n2cnc3cncnc32)cc1F [Example 40, 4-(4-chloro-2-(9H-purin-9-yl)phenoxy)-2,5-difluoro-N-(1,2,4-thiadiazol-5-yl)-benzenesulfonamide] | 1 to 10 |
| Nc1cnc2ccc(-c3cc(Cl)ccc3Oc3cc(F)c(S(=O)(=O)Nc4ncns4)cc3F)cn12 [Example 42, 4-(2-(3-aminoimidazo[1,2-a]pyridin-6-yl)-4-chlorophenoxy)-2,5-difluoro-N-(1,2,4-thiadiazol-5-yl)benzenesulfonamide] | ≤ 0.1 |
| Nc1noc2ccc(-c3cc(Cl)ccc3Oc3cc(F)c(S(=O)(=O)Nc4ncns4)cc3F)cc12 [Example 44, 4-(2-(3-aminobenzo[d]isoxazol-5-yl)-4-chlorophenoxy)-2,5-difluoro-N-(1,2,4-thiadiazol-5-yl)benzenesulfonamide] | ≤ 0.1 |
| Nc1n[nH]c2ccc(-c3cc(Cl)ccc3Oc3cc(F)c(S(=O)(=O)Nc4ncns4)cc3F)cc12 [Example 45, 4-(2-(3-amino-1H-indazol-5-yl)-4-chlorophenoxy)-2,5-difluoro-N-(1,2,4-thiadiazol-5-yl)benzenesulfonamide] | ≤ 0.1 |
| NC(=O)c1cnc2ccc(-c3cc(Cl)ccc3Oc3cc(F)c(S(=O)(=O)Nc4ncns4)cc3F)cn12 [Example 46, 6-(2-(4-(N-(1,2,4-thiadiazol-5-yl)sulfamoyl)-2,5-difluorophenoxy)-5-chlorophenyl)imidazo[1,2-a]pyridine-3-carboxamide] | ≤ 0.1 |
| O=c1[nH]c2ccc(-c3cc(Cl)ccc3Oc3cc(F)c(S(=O)(=O)Nc4ncns4)cc3F)cc2[nH]1 [Example 48, 4-(4-chloro-2-(2-oxo-2,3-dihydro-1H-benzo[d]imidazol-5-yl)phenoxy)-2,5-difluoro-N-(1,2,4-thiadiazol-5-yl)benzenesulfonamide] | ≤ 0.1 |
| Nc1noc2ccc(-c3cc(Cl)ccc3Oc3cc(F)c(S(=O)(=O)Nc4cscn4)cc3F)cc12 [Example 49, 4-(2-(3-aminobenzo[d]isoxazol-5-yl)-4-chlorophenoxy)-2,5-difluoro-N-(thiazol-4-yl)benzenesulfonamide] | ≤ 0.1 |
| O=S(=O)(Nc1ncns1)c1cc(F)c(Oc2ccc(Cl)cc2-c2ccc3ocnc3c2)cc1F [Example 51, 4-(2-(benzo[d]oxazol-5-yl)-4-chlorophenoxy)-2,5-difluoro-N-(1,2,4-thiadiazol-5-yl)benzenesulfonamide] | ≤ 0.1 |
| O=c1[nH]c2cc(-c3cc(Cl)ccc3Oc3cc(F)c(S(=O)(=O)Nc4ncns4)cc3F)ccc2o1 [Example 52, 4-(4-chloro-2-(2-oxo-2,3-dihydrobenzo[d]oxazol-5-yl)phenoxy)-2,5-difluoro-N-(1,2,4-thiadiazol-5-yl)benzenesulfonamide] | ≤ 0.1 |
| O=c1[nH]c2ccc(-c3cc(Cl)ccc3Oc3cc(F)c(S(=O)(=O)Nc4ncns4)cc3F)cc2o1 [Example 53, 4-(4-chloro-2-(2-oxo-2,3-dihydrobenzo[d]oxazol-6-yl)phenoxy)-2,5-difluoro-N-(1,2,4-thiadiazol-5-yl)benzenesulfonamide] | ≤ 0.1 |
| O=S(=O)(Nc1ncns1)c1cc(F)c(Oc2ccc(Cl)cc2-c2ccc3[nH]c(C(F)(F)F)nc3c2)cc1F [Example 54, 4-(4-chloro-2-(2-(trifluoromethyl)-1H-benzo[d]imidazol-5-yl)phenoxy)-2,5-difluoro-N-(1,2,4-thiadiazol-5-yl)benzenesulfonamide] | ≤ 0.1 |
| O=C1Cc2ccc(-c3cc(Cl)ccc3Oc3cc(F)c(S(=O)(=O)Nc4ncns4)cc3F)cc2N1 [Example 55, 4-(4-chloro-2-(2-oxoindolin-6-yl)phenoxy)-2,5-difluoro-N-(1,2,4-thiadiazol-5-yl)benzenesulfonamide] | ≤ 0.1 |
| Nc1nc2ccc(-c3cc(Cl)ccc3Oc3cc(F)c(S(=O)(=O)Nc4ncns4)cc3F)cc2o1 [Example 57, 4-(2-(2-aminobenzo[d]oxazol-6-yl)-4-chlorophenoxy)-2,5-difluoro-N-(1,2,4-thiadiazol-5-yl)benzenesulfonamide] | ≤ 0.1 |
| Nc1noc2ccc(-c3ccccc3Oc3cc(F)c(S(=O)(=O)Nc4ncns4)cc3F)cc12 [Example 58, 4-(2-(3-aminobenzo[d]isoxazol-5-yl)phenoxy)-2,5-difluoro-N-(1,2,4-thiadiazol-5-yl)benzenesulfonamide] | ≤ 0.1 |
| O=S(=O)(Nc1ncns1)c1cc(F)c(Oc2ccc(Cl)cc2-c2ccc3nccnc3c2)cc1F [Example 59, 4-(4-chloro-2-(quinoxalin-6-yl)phenoxy)-2,5-difluoro-N-(1,2,4-thiadiazol-5-yl)benzenesulfonamide] | ≤ 0.1 |
| Nc1noc2ccc(-c3cc(Cl)ccc3Oc3cc(F)c(S(=O)(=O)Nc4ncccn4)cc3F)cc12 [Example 63, 4-(2-(3-aminobenzo[d]isoxazol-5-yl)-4-chlorophenoxy)-2,5-difluoro-N-(pyrimidin-2-yl)benzenesulfonamide] | ≤ 0.1 |
| Nc1noc2ccc(-c3cc(Cl)ccc3Oc3cc(F)c(S(=O)(=O)Nc4ncns4)c(F)c3)cc12 [Example 64, 4-(2-(3-aminobenzo[d]isoxazol-5-yl)-4-chlorophenoxy)-2,6-difluoro-N-(1,2,4-thiadiazol-5-yl)benzenesulfonamide] | ≤ 0.1 |
| Nc1noc2ccc(-c3cc(Cl)ccc3Oc3ccc(S(=O)(=O)Nc4ncns4)c(F)c3F)cc12 [Example 65, 4-(2-(3-aminobenzo[d]isoxazol-5-yl)-4-chlorophenoxy)-2,3-difluoro-N-(1,2,4-thiadiazol-5-yl)benzenesulfonamide] | ≤ 0.1 |
| CNc1noc2ccc(-c3cc(Cl)ccc3Oc3cc(F)c(S(=O)(=O)Nc4ncns4)cc3F)cc12 [Example 69, 4-(4-chloro-2-(3-(methylamino)benzo[d]isoxazol-5-yl)phenoxy)-2,5-difluoro-N-(1,2,4-thiadiazol-5-yl)benzenesulfonamide] | ≤ 0.1 |
| O=S(=O)(Nc1ncns1)c1cc(F)c(Oc2ccc(Cl)cc2-c2ccc3[nH]cnc3c2)cc1F [Example 73, 4-(2-(1H-benzo[d]imidazol-5-yl)-4-chlorophenoxy)-2,5-difluoro-N-(1,2,4-thiadiazol-5-yl)benzenesulfonamide] | ≤ 0.1 |
